Tests used:
PIK3CG (human) = PIK3CG (human) (UniProt P48736); assay: Assessment of PIK3CG Kinase Activity
PIK3CD (Human) = PIK3CD (Human) (UniProt O00329); assay: Assessment of PIK3CD Kinase Activity
PIK3CA (human) = PIK3CA (human) (UniProt P42336); assay: Assessment of PIK3CA Kinase Activity
Sequence of PIK3CA (human) (P42336 whole entry, looked up): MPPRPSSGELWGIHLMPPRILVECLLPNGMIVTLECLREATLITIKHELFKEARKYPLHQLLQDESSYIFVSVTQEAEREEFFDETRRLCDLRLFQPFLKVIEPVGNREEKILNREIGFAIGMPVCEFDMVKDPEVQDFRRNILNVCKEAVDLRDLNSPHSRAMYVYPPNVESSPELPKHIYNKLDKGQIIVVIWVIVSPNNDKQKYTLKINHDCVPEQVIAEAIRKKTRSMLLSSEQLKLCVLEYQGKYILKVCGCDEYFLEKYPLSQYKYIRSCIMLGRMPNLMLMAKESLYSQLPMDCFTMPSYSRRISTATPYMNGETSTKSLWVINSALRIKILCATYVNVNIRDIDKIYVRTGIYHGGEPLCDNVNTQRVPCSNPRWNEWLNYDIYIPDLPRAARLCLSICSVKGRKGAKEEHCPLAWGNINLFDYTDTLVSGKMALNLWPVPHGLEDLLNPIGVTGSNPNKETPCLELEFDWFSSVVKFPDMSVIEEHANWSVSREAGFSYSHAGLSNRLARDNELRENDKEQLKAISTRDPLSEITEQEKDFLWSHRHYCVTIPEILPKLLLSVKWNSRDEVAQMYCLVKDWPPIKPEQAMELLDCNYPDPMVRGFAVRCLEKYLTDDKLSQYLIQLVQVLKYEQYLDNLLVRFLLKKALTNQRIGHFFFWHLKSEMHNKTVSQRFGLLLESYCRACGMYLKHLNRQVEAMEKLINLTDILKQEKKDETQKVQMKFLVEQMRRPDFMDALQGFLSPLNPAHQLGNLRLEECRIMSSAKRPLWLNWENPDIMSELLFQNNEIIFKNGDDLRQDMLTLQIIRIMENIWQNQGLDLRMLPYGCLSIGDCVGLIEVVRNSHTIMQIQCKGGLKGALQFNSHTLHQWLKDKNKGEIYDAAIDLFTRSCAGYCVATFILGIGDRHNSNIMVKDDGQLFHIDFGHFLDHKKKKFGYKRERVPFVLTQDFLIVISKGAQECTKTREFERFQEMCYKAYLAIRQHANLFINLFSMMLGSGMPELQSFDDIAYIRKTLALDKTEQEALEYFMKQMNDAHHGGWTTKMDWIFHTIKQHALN

Sequence of PIK3CD (Human) (O00329 whole entry, looked up): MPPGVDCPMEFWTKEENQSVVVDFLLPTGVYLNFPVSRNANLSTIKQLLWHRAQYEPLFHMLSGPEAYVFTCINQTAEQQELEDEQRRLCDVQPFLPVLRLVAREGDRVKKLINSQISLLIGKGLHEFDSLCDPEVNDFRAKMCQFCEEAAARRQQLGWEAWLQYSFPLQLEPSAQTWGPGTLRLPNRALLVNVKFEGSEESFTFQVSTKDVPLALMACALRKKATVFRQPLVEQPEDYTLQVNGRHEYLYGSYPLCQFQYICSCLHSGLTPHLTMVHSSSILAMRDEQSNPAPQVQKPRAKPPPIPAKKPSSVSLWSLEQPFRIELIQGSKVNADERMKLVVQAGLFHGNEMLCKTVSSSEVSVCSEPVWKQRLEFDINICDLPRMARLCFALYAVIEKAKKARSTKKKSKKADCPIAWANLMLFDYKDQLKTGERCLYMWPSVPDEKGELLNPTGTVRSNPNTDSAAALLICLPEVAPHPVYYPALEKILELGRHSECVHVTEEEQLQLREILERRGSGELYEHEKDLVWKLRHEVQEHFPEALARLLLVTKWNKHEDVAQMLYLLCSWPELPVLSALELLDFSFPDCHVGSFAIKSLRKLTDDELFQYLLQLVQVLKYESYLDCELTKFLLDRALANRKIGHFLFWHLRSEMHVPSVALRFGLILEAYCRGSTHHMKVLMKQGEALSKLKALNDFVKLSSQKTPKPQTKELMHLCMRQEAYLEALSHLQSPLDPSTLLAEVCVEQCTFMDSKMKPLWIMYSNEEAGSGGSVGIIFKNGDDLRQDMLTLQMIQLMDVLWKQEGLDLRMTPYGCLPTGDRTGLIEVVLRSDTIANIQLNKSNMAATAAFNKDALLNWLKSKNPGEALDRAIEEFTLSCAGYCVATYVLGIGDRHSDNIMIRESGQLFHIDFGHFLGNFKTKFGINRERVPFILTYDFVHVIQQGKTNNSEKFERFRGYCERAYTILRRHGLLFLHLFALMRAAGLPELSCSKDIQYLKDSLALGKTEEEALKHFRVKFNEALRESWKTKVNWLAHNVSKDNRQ
Sequence of PIK3CG (human) (P48736 whole entry, looked up): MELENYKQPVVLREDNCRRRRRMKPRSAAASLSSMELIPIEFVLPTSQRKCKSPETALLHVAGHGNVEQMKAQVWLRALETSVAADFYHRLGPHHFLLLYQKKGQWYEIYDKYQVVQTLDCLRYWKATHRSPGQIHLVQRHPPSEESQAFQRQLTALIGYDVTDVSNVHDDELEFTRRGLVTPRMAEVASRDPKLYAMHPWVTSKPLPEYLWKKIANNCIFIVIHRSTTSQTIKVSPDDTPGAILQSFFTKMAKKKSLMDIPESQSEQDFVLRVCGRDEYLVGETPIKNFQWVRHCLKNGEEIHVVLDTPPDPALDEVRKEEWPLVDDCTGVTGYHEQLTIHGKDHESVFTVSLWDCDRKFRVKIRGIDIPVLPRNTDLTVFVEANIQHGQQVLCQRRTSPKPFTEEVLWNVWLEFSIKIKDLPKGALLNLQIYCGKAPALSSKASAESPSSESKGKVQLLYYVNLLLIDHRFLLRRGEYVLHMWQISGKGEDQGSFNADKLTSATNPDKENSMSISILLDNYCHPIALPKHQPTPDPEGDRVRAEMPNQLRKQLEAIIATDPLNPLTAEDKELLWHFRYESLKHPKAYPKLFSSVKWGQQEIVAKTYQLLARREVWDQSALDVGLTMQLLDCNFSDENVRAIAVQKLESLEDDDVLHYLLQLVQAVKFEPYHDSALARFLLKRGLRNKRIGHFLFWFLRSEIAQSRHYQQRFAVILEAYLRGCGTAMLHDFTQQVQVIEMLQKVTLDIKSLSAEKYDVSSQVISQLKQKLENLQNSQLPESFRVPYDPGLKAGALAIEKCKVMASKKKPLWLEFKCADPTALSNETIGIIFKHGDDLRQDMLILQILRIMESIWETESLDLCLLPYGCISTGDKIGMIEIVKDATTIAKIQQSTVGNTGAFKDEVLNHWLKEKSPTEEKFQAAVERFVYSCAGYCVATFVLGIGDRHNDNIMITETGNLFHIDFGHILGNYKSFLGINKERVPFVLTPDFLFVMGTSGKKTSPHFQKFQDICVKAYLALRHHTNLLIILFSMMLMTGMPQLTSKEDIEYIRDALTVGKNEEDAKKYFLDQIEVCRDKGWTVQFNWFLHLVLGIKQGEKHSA

Row | Compound | IC50 (PIK3CG (human)) [nM] | IC50 (PIK3CD (Human)) [nM] | IC50 (PIK3CA (human)) [nM]
1 | Cc1nc(NC(=O)NCCO)sc1-c1ccc(S(C)(=O)=O)c(C(F)(F)F)c1 | 47 | 180 | 35
2 | Cc1nc(NC(=O)NCCS(C)(=O)=O)sc1-c1ccc(F)c(S(C)(=O)=O)c1 | 177 | 637 | 218
3 | CCc1nnc(CCNC(=O)Nc2nc(C)c(-c3ccc(S(C)(=O)=O)c(F)c3)s2)o1 | 74 | 3790 | 839
4 | Cc1nc(NC(=O)NCCc2cn(C(C)C)cn2)sc1-c1ccc(S(C)(=O)=O)c(F)c1 | 44 | 420 | 1500
5 | CCc1cnc(CCNC(=O)Nc2nc(C)c(-c3ccc(S(C)(=O)=O)c(-n4ccnc4)c3)s2)o1 | 32 | 170 | 156

Continued by falling IC50 (PIK3CG (human)), values first:

Row | IC50 (PIK3CG (human)) [nM] | IC50 (PIK3CD (Human)) [nM] | IC50 (PIK3CA (human)) [nM] | Compound
6 | 213 | 2620 | 2060 | Cc1nc(NC(=O)NCCC(=O)OC(C)(C)C)sc1-c1ccc(S(C)(=O)=O)c(C(F)(F)F)c1
7 | 195 | – | 190 | Cc1nc(NC(=O)N2CC(C#N)C2)sc1-c1ccc(S(C)(=O)=O)c(F)c1
8 | 38 | 2150 | 934 | CCn1cnc(CCNC(=O)Nc2nc(C)c(-c3ccc(S(C)(=O)=O)c(F)c3)s2)c1
9 | 16 | 626 | 3020 | Cc1nc(NC(=O)NCCC(=O)OC(C)(C)C)sc1-c1ccc(S(C)(=O)=O)c(F)c1
10 | 12 | 28 | 9 | Cc1nc(NC(=O)NCC(=O)N(C)C)sc1-c1ccc(S(C)(=O)=O)c(F)c1
